The values below come from patent US10744150B2, “Cyclic dinucleotides as anticancer agents” (BRISTOL-MYERS SQUIBB COMPANY, priority 2017, dated 2020).

For experiment [1], the target named is T1, STING WT: His-TVMV-S-hSTING(155-341)-H232R (Homo sapiens, UniProt Q86WV6, H232R).
T1 construct: His-TVMV-S-hSTING(155-341)-H232R
Kind of experiment: STING HTRF binding assay (time resolved FRET competition), STING WT. The conditions noted are these: 20 nM His-tagged STING cytoplasmic domain, 200 nM fluorescein-labeled cGAMP analog probe, one hour; read-out: HTRF Binding Assays IC50 STING WT. Summed up:
(§1)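 TR-FRET competition: 20 nM His-tagged STING cytoplasmic domain with 2.5 nM Tb-anti-His and fluorescein-cGAMP analog probe (200 nM for WT, 40 nM for AQ), 1 h in PBS/0.005% Tween-20/0.1% BSA. Background-subtracted 520/495 ratios were converted to % inhibition at 11 concentrations. IC50 came from a 4-parameter logistic fit.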

Another experiment deals with IRF3. Kind of experiment: STING THP1 reporter assay, IRF pathway (secreted luciferase Lucia, QUANTI-Luc). Type of experiment: cell-based. The conditions noted are these: THP1-Dual cells, 10% human plasma, 100% activation = 100 μM cGAMP, luciferase readout, read-out: THP1 Reporter Assays EC50 IRF3. Summed up: (§2)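 THP1-Dual cells (15,000/well) in RPMI with 10% human plasma were treated with compound dilutions (top final 100 μM) for 20 h at 37° C. Lucia luciferase (QUANTI-Luc, luminescence) or SEAP (QUANTI-Blue, OD620 after 2 h) in supernatant; normalized to DMSO baseline and 100 μM cGAMP as 100%.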

Another experiment deals with NFkB. Kind of experiment: STING THP1 reporter assay, NF-κB pathway (SEAP, QUANTI-Blue). Type of experiment: cell-based. The following applies: THP1-Dual cells, 10% human plasma, 100% activation = 100 μM cGAMP. Summed up:
as §2

In experiment [2] the target is T2, STING AQ: His-TVMV-S-hSTING(155-341)-G230A-R293Q (Homo sapiens, UniProt Q86WV6, G230A/H232R/R293Q).
T2 construct: His-TVMV-S-hSTING(155-341)-G230A-R293Q
T2 sequence (Q86WV6 with tags, fused parts or gaps G230A/H232R/R293Q): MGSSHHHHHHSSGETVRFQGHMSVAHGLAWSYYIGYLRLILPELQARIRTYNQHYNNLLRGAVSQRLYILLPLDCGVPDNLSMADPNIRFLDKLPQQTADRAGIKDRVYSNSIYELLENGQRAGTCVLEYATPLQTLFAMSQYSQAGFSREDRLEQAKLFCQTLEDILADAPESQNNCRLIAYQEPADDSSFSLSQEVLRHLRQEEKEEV
Put plainly: STING HTRF binding assay (time resolved FRET competition), STING AQ. The following applies: 20 nM His-tagged STING cytoplasmic domain, 40 nM fluorescein-labeled cGAMP analog probe, one hour; read-out: HTRF Binding Assays IC50 STING AQ. Summed up:
as §1

Setting [3] is: Homo sapiens, THP-1, 20 h, SEAP readout OD620, read-out: THP1 Reporter Assays EC50 NFkB.
[4] abbreviates: 20 hours, SEAP readout OD620, read-out: THP1 Reporter Assays EC50 NFkB.

Structures are written as SMILES. Where two headings read alike, the source gives them in different places.

T1 sequence (Q86WV6 with tags, fused parts or gaps H232R): as the sequence (Q86WV6 with tags, fused parts or gaps G230A/H232R/R293Q) above, with A99G, Q162R counted along it

As for `Nc1ncnc2c1ncn2[C@@H]1C[C@@H]2COP(O)(=S)O[C@@H]3[C@H](O)[C@@H](COP(O)(=S)OC[C@H]21)O[C@H]3n1cnc2c(O)nc3nccn3c21` (single isomer, unassigned) [Example 15-1], the values for the IC50 in experiment [1] and in experiment [2] were 33.5 µM and 4.4 µM, respectively. Moreover, the EC50 with IRF3 (Homo sapiens, THP-1, 20 h) was greater than 100 µM; in the experiment on NFkB (setting [3]), greater than 100 µM.

As to `Nc1ncnc2c1ncn2[C@@H]1C[C@@H]2COP(O)(=S)O[C@@H]3[C@H](O)[C@@H](COP(O)(=S)OC[C@H]21)O[C@H]3n1cnc2c(O)nc3nccn3c21` (single isomer, unassigned) [Example 15-2], the half-inhibitory concentration (IC50) in experiment [1] amounted to 26.9 µM; in experiment [2], 1.8 µM. The EC50 with IRF3 (20 hours) and in the experiment with NFkB (setting [4]) was greater than 100 µM throughout.

Turning to `Nc1ncnc2c1ncn2[C@@H]1C[C@@H]2COP(O)(=S)O[C@@H]3[C@H](O)[C@@H](COP(O)(=S)OC[C@H]21)O[C@H]3n1cnc2c(O)nc3nccn3c21` (single isomer, unassigned) [Example 15-3], the concentration for half-maximal inhibition (IC50) worked out at 32.6 µM in experiment [1] and 1.2 µM in experiment [2]. Further, the 50% effective concentration (EC50) with IRF3 (20 hours) and in the experiment on NFkB (setting [4]) was greater than 100 µM in each case.

On to `Nc1ncnc2c1ncn2[C@@H]1C[C@@H]2COP(O)(=S)O[C@@H]3[C@H](O)[C@@H](COP(O)(=S)OC[C@H]21)O[C@H]3n1cnc2c(O)nc3nccn3c21` (single isomer, unassigned) [Example 15-4], for which the IC50 in experiment [1] came out at 3.9 µM; in experiment [2], 0.47 µM. Further, the EC50 in the experiment on IRF3 (20 hours) and in the experiment with NFkB (setting [4]) was greater than 100 µM in each case.

For `Nc1ncnc2c1ncn2[C@@H]1C[C@@H]2COP(O)(=S)O[C@H]3[C@H](F)[C@H](n4cnc5c(N)ncnc54)O[C@@H]3COP(O)(=S)OC[C@H]21` (single isomer, unassigned) [Example 17-1], the half-maximal inhibitory concentration (IC50) in experiment [1] and in experiment [2] was greater than 100 µM throughout. Moreover, the EC50 is greater than 100 µM with IRF3 (Homo sapiens, THP-1, 20 h) and 2 µM in the experiment on NFkB (setting [4]).

With `Nc1ncnc2c1ncn2[C@@H]1C[C@@H]2COP(O)(=S)O[C@H]3[C@H](F)[C@H](n4cnc5c(N)ncnc54)O[C@@H]3COP(O)(=S)OC[C@H]21` (single isomer, unassigned) [Example 17-2], the IC50 in experiment [1] is greater than 100 µM; in experiment [2] it was 1.9 µM. Besides, the EC50 in the experiment with IRF3 (20 hours) and in the experiment on NFkB (setting [4]) was greater than 100 µM in each case.

With `Nc1nc2c(ncn2[C@@H]2C[C@@H]3COP(O)(=S)O[C@H]4[C@@H](F)[C@H](n5cnc6c(N)ncnc65)O[C@@H]4COP(O)(=S)OC[C@H]32)c(=O)[nH]1` (single isomer, unassigned) [Example 18-1], the IC50 in experiment [1] is 0.004 µM; in experiment [2], 0.002 µM. In addition, the values for the EC50 with IRF3 (20 hours) and in the experiment on NFkB (setting [4]) were 0.6 µM and 2.6 µM, respectively.

Take `Nc1nc2c(ncn2[C@@H]2C[C@@H]3COP(O)(=S)O[C@H]4[C@@H](F)[C@H](n5cnc6c(N)ncnc65)O[C@@H]4COP(O)(=S)OC[C@H]32)c(=O)[nH]1` (single isomer, unassigned) [Example 18-2]: the IC50 was 0.15 µM in experiment [1] and 0.02 µM in experiment [2]. In addition, the half-maximal effective concentration (EC50) in the experiment with IRF3 (20 hours) and with NFkB (setting [4]) was greater than 100 µM throughout.

On to `Nc1nc2c(ncn2[C@@H]2C[C@@H]3COP(O)(=S)O[C@H]4[C@@H](F)[C@H](n5cnc6c(N)ncnc65)O[C@@H]4COP(O)(=S)OC[C@H]32)c(=O)[nH]1` (single isomer, unassigned) [Example 18-3], for which the IC50 in experiment [1] worked out at 0.52 µM; in experiment [2], 0.02 µM. Further, the EC50 with IRF3 (20 hours) and in the experiment on NFkB (setting [4]) was greater than 100 µM each time.

For the compound `Nc1nc2c(ncn2[C@@H]2C[C@@H]3COP(O)(=S)O[C@H]4[C@@H](F)[C@H](n5cnc6c(N)ncnc65)O[C@@H]4COP(O)(=S)OC[C@H]32)c(=O)[nH]1` (single isomer, unassigned) [Example 18-4], the IC50 turned out to be 0.05 µM in experiment [1] and 0.004 µM in experiment [2]. Further, the concentration for a half-maximal effect (EC50) in the experiment on IRF3 (20 hours) was greater than 100 µM; with NFkB (setting [4]) it was 74.5 µM.

As for `Nc1ncnc2c1ncn2[C@@H]1C[C@@H]2COP(=O)(O)O[C@H]3[C@@H](F)[C@H](n4cnc5c(N)ncnc54)O[C@@H]3COP(=O)(O)OC[C@H]21` [Example 10, (1R,6S,8R,9R,15R,17R,18R)-8,17-bis(6-amino-9H-purin-9-yl)-18-fluoro-3,12-dihydroxy-2,4,11,13,16-pentaoxa-3λ^5,12λ^5-diphosphatricyclo[13.3.0.0^6,9]octadecane-3,12-dione], the IC50 in experiment [1] stood at 5.2 µM; in experiment [2], 0.04 µM. The EC50 in the experiment with IRF3 (Homo sapiens, THP-1, 20 h) was greater than 100 µM; with NFkB (setting [3]), greater than 100 µM.

Consider `Nc1ncnc2c1ncn2[C@@H]1C[C@@H]2COP(O)(=S)O[C@H]3[C@@H](O)[C@H](n4cnc5c(O)ncnc54)O[C@@H]3COP(O)(=S)OC[C@H]21` (stereo partly drawn) [Example 16, (1S,6S,8R,9R,15R,17R,18R)-8-(6-amino-9H-purin-9-yl)-3,12,18-trihydroxy-17-(6-hydroxy-9H-purin-9-yl)-2,4,11,13,16-pentaoxa-3λ^5,12λ^5-diphosphatricyclo[13.3.0.0^6,9]octadecane-3,12-dithione], for which the IC50 in experiment [1] is 17.9 µM; in experiment [2], 0.23 µM. In addition, the EC50 is greater than 100 µM in the experiment on IRF3 (Homo sapiens, THP-1, 20 h) and 31 µM in the experiment with NFkB (setting [3]).
